These are literature values, as cited in patent US10399920B2, “Crystalline form of cannabidiol” (S&B Pharma, Inc., priority 2016, dated 2019).

This data set has as its system epilepsy. As to conditions: animal studies; dosed at 50 and 100 mg/kg intra-peritoneally; Cannabidiol prepared by non-synthetic methods.

As to `C=C(C)[C@@H]1CCC(C)=C[C@H]1c1c(O)cc(CCCCC)cc1O` [Cannabidiol], the reducing mortality result is listed as “effective in reducing mortality”.
